Data on 14 compounds can be found in US20250163057A1, “DCN-1 MODULATING COMPOUNDS AND METHODS OF USE THEREOF” (Cellarity, Inc., priority 2023, published 2025).

Read-outs that look alike come from different tables or passages of the source.

Experiment [1] has as its system fetal hemoglobin gene HBG1. Briefly: HBG1 Nanostring Assay in CD34+ HSPC erythroid differentiation culture. As to conditions: for Nanostring Ymax obs (%): relative to a control compound (C1); for EC50: Homo sapiens, 240 h, HBG1 induction, Day10 of erythroid differentiation. It is filed as cell-based, human. The protocol: A Nanostring Assay was performed to evaluate the ability of the compounds to induce expression of the fetal hemoglobin gene HBG1 in cells. The data are shown as EC50, with stronger inducers having a lower EC50 value and higher YMax.
Forty eight hours later (day −2), the cells were passaged at a density of 200,000 cells/ml (100 ul/well in 96well culture plate) in complete expantion media. The cells were plated at 200,000 cells/ml on day 0 and day 3, 400,000 cells/ml on day 5 in phase 1 erythroid differentiation containing StemSpan with 2.5 U/mL of EPO (R&D systems, 287-TC-500), 0.5 mg/mL of Holo-Transferrin (Sigma, T0665-500MG), 1× Glutamine (Gluta-Max) (Gibco, 35050-061), 5 μL/mL Lipid Mixture (Sigma, L0288-100ML), 50 ng/mL SCF (R&D Systems, 255-SV-050), 10 ng/mL IL-3 (R&D Systems, 203-IL010) and 10 ng/mL Insulin (Sigma, I9278-5ML) all 200 μl per well in 96 well culture plate. Cells were then passaged at 500,000 cells/ml and 200 μl per well on day 7 in phase 2 Erythroid differentiation (Phase 1 erythroid differentiation removing IL-3) until collection day (Day10). The culture conditions were used for both control DMSO as well as experimental treatments.
For all cell pasagings, cells were centrifuged at 300 g for 8 minutes at room temperature and cell number were normalized by MANTIS and Integra VIAFLO 384. All the compounds are diluted in DMSO and added to complete media by Formulatrix FAST and mixed starting from day −2. Cells were counted by Luna cell counter with AOPI Staining Solution (Nexcelom Bioscience, CS2-0106-25 mL) on day-2. Cells were counted by BD FACSCelesta Flow Cytometer with CountBright™ Plus Absolute Counting Beads (Thermal Fisher Scientific, C36995) and SYTOX AADvanced™ Ready Flow™ Reagent (Invitrogen, R37173) for other passages. Cells were cultured at 37° C. and 5% CO2. DMSO concentration was kept at 0.1% to minimize any effects to the cells by the vehicle. […] Compound plates were kept at room temperature to protect from light to avoid multiple freeze and thaw cycle.
On the collection day (Day10), 100K cells were collected and stored at −80° C. For direct hybridization for Nanostring, 100K cell pellet was lyzed in 25 μL of RLT (QIAGEN, 79216) with 1×β-Mercaptoethanol (Gibco, 21985-023) and shaked at 300-500 RPM for 5 minutes at room temperature. Cell lysate was stored in −80° C. after lysis.
All hybridizations were done in a total volume of 15 μL (3 μL of RNA lysate added to master mix of 12 μL probe A/B, capture probe/reporter probes, proteinase K and attenuation oligos suspended in hybridization buffer). Samples were hybridized at 67° C. for 22 hr. Following hybridization, the tripartide complexes were purified, immobilized by nCounter Prep Station and imaged by Digital Analyzer (nCounter MAX/FLEX Analysis System), to generate digital counts of barcodes corresponding to each target in the multiplexed reaction. Labeled barcodes obtained from unamplified extracts were counted at 555 images or field of view (FOV). The barcode counts for each sample were recorded in Reporter Code Count (RCC) files that are imported into nSolver analysis software (provided with CodeSet by NS) for quality control evaluation.
The quality control (QC) metric included limit of detection QC by checking for wells with less than 100 total counts for positive controls.
Hybridization signals were normalized against the ERCC positive controls and CodeSet Content (housekeeping gene). Briefly, this involved first calculating a sample-specific scaling factor by calculating arithmetic mean of geomeans of all ERCC positive controls with counts more than zero in all samples. Then this arithmetic mean was divided by the geometric mean of each lane to generate a lane-specific normalization factor. All negative controls and target-specific signal values were then normalized by multiplying counts values with their sample-specific scaling factor. The acceptable range for scaling factors is 0.3-3.0. […]

Experiment [2] deals with Cullin-3 (CUL3) neddylation. Kind of experiment: AlphaLISA assay for Cullin-3 (CUL3) neddylation in TF 1 cells. It is filed as cell-based. As to conditions: Homo sapiens, TF-1, 3 h, 3 hours treatment. In outline:
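TF 1 cells in unsupplemented IMDM treated with compound concentrations for 3 h, then lysed. CUL3 neddylation detected by AlphaLISA (biotinylated anti-NEDD8, anti-CUL3 acceptor beads overnight, streptavidin donor beads 1 h); normalized to vehicle (0%) and 1 μM DI-1548 (100%), IC50 from Hill fits.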
For orientation: In Alpha technology, singlet oxygen from a donor bead excites a nearby acceptor bead.

Experiment [3] deals with DCN1 (DCUND1) protein PONY domain (Homo sapiens (Human), UniProt Q96GG9). Briefly: TR-FRET assay, DCN1 binding with FAM-labeled probe. A digest of the protocol: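 Binding was read as the TR-FRET ratio between a FAM-tagged inhibitor probe and Tb-labeled biotinylated E. coli-expressed DCN1 PONY domain, measured 1, 5 and 24 h after compound addition. The two setups used 5 nM protein/20 nM FAM-probe or 0.31 nM protein/900 nM total probe (100 nM labeled), in TritonX buffer with 200 mM NaCl.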
DCN1 (DCUND1) protein PONY domain, sequence (Q96GG9 60-248): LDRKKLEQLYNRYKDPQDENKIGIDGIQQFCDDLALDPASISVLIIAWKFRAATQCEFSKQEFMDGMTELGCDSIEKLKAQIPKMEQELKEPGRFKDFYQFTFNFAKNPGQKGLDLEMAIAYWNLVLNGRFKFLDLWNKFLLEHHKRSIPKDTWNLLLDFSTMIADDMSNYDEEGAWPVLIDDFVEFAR
For orientation: Time-resolved FRET reads energy transfer from a long-lived donor to a nearby acceptor.

For experiment [4], the target named is DCN1 protein (Homo sapiens (Human), UniProt Q96GG9). Briefly: Intact Protein MS Analysis with the RapidFire-TOF System (covalent adduct formation). As to conditions: MS Emax; 400 nM DCN1, 3 hours at room temperature. The experiment is classed as binding. In outline:
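Tag-cleaved human DCN1 (400 nM) expressed in E. coli, in 25 mM Tris-HCl, 200 mM NaCl, 1 mM DTT, was incubated with 11 compound concentrations for 3 h at room temperature and quenched with 0.2% formic acid. Intact-protein Q-TOF MS with deconvolution detected the compound adduct mass.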

The mark [5] stands for this setting: 24 hr after treatment with compound, read-out: TR FRET IC50 24 hr.
Setting [6] is: read-out: TR FRET IC50 1 hr, 1 hr after treatment with compound.
Where [7] appears, read: TR FRET IC50 1 hr (nM), 1 hr after treatment with compound.

DCN1 protein, sequence (Q96GG9 whole entry): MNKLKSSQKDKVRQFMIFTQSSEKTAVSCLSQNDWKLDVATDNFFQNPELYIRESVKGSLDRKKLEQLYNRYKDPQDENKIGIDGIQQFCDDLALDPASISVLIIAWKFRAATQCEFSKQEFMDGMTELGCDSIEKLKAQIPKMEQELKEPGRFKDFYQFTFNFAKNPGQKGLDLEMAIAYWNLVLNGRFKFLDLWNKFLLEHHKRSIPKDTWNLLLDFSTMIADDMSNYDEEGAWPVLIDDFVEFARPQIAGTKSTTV

What is called IC50 is the point on the concentration scale where inhibition reaches its midpoint. Turning to `C=C(CN1CCC1)C(=O)NCc1nn(-c2ccccc2)c2c1[C@H](c1ccc(F)cc1)[C@H](NC(=O)c1cccc(C(F)(F)F)c1)C(=O)N2CC` [Compound I-2], the “Nanostring Ymax obs (%)” value in experiment [1] is “++ (Nanostring Ymax greater than 50.0 and less than or equal to 100.0)”. Further, the concentration for half-maximal inhibition (IC50) in experiment [2] is not above 100 nM; in experiment [3] (setting [5]) it was not above 200 nM; in experiment [3] (setting [6]) it was not above 200 nM.
In the case of `C=C(CN1C2CCC1COC2)C(=O)NCc1nn(-c2ccccc2)c2c1[C@H](c1ccc(F)cc1)[C@H](NC(=O)c1cccc(C(F)(F)F)c1)C(=O)N2CC` (mixture of isomers) [Compound I-613], the “Nanostring Ymax obs (%)” value in experiment [1] is listed as “+++ (Nanostring Ymax greater than 100.0)”. Moreover, the half-maximal inhibitory concentration (IC50) was not above 100 nM in experiment [2], not above 200 nM in experiment [3] (setting [5]) and not above 200 nM in experiment [3] (setting [6]).
As a reminder, the EC50 is the concentration needed to bring the measured effect to its halfway point. `CCN1C(=O)[C@@H](NC(=O)c2cccc(C(F)(F)F)c2)[C@@H](c2ccc(F)cc2)c2c([C@H](NC#N)C(F)F)nn(-c3ccccc3)c21` [Compound I-411] came in with an EC50 in experiment [1] of 100 to 1000 nM. The “Nanostring Ymax obs (%)” value in experiment [1] was “++ (Nanostring Ymax greater than 50.0 and less than or equal to 100.0)”. Moreover, the IC50 in experiment [2] was not above 100 nM; in experiment [3] (setting [5]), not above 200 nM; in experiment [3] (setting [6]) it was not above 200 nM.
As for `C=C(CN1CC2(CCC2O)C1)C(=O)NCc1nn(-c2ccccc2)c2c1[C@H](c1ccc(F)cc1)[C@H](NC(=O)c1cccc(C(F)(F)F)c1)C(=O)N2CC` (mixture of isomers) [Compound I-458], the “Nanostring Ymax obs (%)” value in experiment [1] was “++ (Nanostring Ymax greater than 50.0 and less than or equal to 100.0)”. In addition, the IC50 in experiment [2] was not above 100 nM; in experiment [3] (setting [5]), not above 200 nM; in experiment [3] (setting [6]), not above 200 nM.
In experiment [1], `C=C(CN1CC2CCC1CO2)C(=O)NCc1nn(-c2ccccc2)c2c1[C@H](c1ccc(F)cc1)[C@H](NC(=O)c1cccc(C(F)(F)F)c1)C(=O)N2CC` (mixture of isomers) [Compound I-447] had an EC50 not above 100 nM. In addition, in experiment [1], the “Nanostring Ymax obs (%)” value is recorded as “+++ (Nanostring Ymax greater than 100.0)”. Also, the IC50 in experiment [2] is not above 100 nM; in experiment [3] (setting [5]), not above 200 nM; in experiment [3] (setting [6]) it was not above 200 nM.
In turn, `C=C(CN(C)C1COC1)C(=O)NCc1nn(-c2ccccc2)c2c1[C@@H](c1ccc(F)cc1)[C@H](NC(=O)c1cccc(C(F)(F)F)c1)C(=O)N2CC` (racemic) [Compound I-491] came in with an EC50 in experiment [1] not above 100 nM. Also, the “Nanostring Ymax obs (%)” value in experiment [1] was “++ (Nanostring Ymax greater than 50.0 and less than or equal to 100.0)”. For the same compound, the results for the IC50 in experiment [2], in experiment [3] (setting [5]) and in experiment [3] (setting [7]) were not above 100 nM, not above 200 nM and 200 to 1000 nM, respectively.
Regarding `C=C(CN1CC2(CCO2)C1)C(=O)NCc1nn(-c2ccccc2)c2c1[C@H](c1ccc(F)cc1)[C@H](NC(=O)c1cccc(C(F)(F)F)c1)C(=O)N2CC` [Compound I-407], the “Nanostring Ymax obs (%)” value in experiment [1] is “+ (Nanostring Ymax greater than or equal to 0.0 and less than or equal to 50.0)”. The results for the half-inhibitory concentration (IC50) in experiment [2], in experiment [3] (setting [5]) and in experiment [3] (setting [6]) were not above 100 nM, not above 200 nM and not above 200 nM, respectively.
On to `C=CS(=O)(=O)NCc1nn(-c2ccccc2)c2c1[C@H](c1ccc(F)cc1)[C@H](NC(=O)c1cccc(C(F)(F)F)c1)C(=O)N2CC` (racemic) [Compound I-230], for which, in experiment [1], the concentration for a half-maximal effect (EC50) is more than 1000 nM; the “Nanostring Ymax obs (%)” value was “++ (Nanostring Ymax greater than 50.0 and less than or equal to 100.0)”. Moreover, the 50% inhibitory concentration (IC50) in experiment [2] is not above 100 nM.
Take `C=C(CN1CCCC1)C(=O)NCc1nn(-c2ccccc2)c2c1[C@H](c1ccc(F)cc1)[C@H](NC(=O)c1cccc(C(F)(F)F)c1)C(=O)N2CC` [Compound I-612]: the “Nanostring Ymax obs (%)” value in experiment [1] was “++ (Nanostring Ymax greater than 50.0 and less than or equal to 100.0)”. Further, the results for the half-inhibitory concentration (IC50) in experiment [2], in experiment [3] (setting [5]) and in experiment [3] (setting [6]) were not above 100 nM, not above 200 nM and not above 200 nM, respectively.
On to `CCCn1nc(C(=O)N(C)C(C)C#N)c2c1N(CC)C(=O)[C@@H](NC(=O)c1cccc(C(F)(F)F)c1)[C@H]2c1ccc(F)cc1` (stereo partly shown) [Compound I-307], for which the figures for the half-maximal inhibitory concentration (IC50) in experiment [2], in experiment [3] (setting [5]) and in experiment [3] (setting [6]) were not above 100 nM, not above 200 nM and not above 200 nM, respectively. Further, the “% Adduct Formation” value in experiment [4] is “+++ (MS Emax % adduct formation greater than 80.0 and less than or equal to 100.0)”.
On to `CCCn1nc(C(=O)N2[C@H](C#N)C[C@H]3C[C@H]32)c2c1N(CC)C(=O)[C@@H](NC(=O)c1cccc(C(F)(F)F)c1)[C@H]2C1CC1` [Compound I-328], for which the concentration for half-maximal inhibition (IC50) is not above 100 nM in experiment [2], not above 200 nM in experiment [3] (setting [5]) and not above 200 nM in experiment [3] (setting [6]). For the same compound, in experiment [4], the “% Adduct Formation” value is “+++ (MS Emax % adduct formation greater than 80.0 and less than or equal to 100.0)”.
On to `CCN1C(=O)[C@@H](NC(=O)c2cccc(C(F)(F)F)c2)[C@@H](c2ccc(F)cc2)c2c(C(=O)N(CC#N)CCN3CC4CCC(C3)O4)nn(-c3ccccc3)c21` (mixture of isomers) [Compound I-324], for which the results for the IC50 in experiment [2], in experiment [3] (setting [5]) and in experiment [3] (setting [7]) were not above 100 nM, not above 200 nM and 200 to 1000 nM, respectively. For the same compound, the “% Adduct Formation” value in experiment [4] is “+++ (MS Emax % adduct formation greater than 80.0 and less than or equal to 100.0)”.
On to `CCN1C(=O)[C@@H](NC(=O)c2cccc(C(F)(F)F)c2)[C@@H](c2ccc(F)cc2)c2c(C(=O)N(C)[C@@H](C#N)CCN3CCC34COC4)nn(-c3ccccc3)c21` [Compound I-315], for which the results for the concentration for half-maximal inhibition (IC50) in experiment [2], in experiment [3] (setting [5]) and in experiment [3] (setting [6]) were not above 100 nM, not above 200 nM and not above 200 nM, respectively. In experiment [4], the “% Adduct Formation” value is “+++ (MS Emax % adduct formation greater than 80.0 and less than or equal to 100.0)”.
With `CCN1C(=O)[C@@H](NC(=O)c2cccc(C(F)(F)F)c2)[C@@H](c2ccc(F)cc2)c2c(C(=O)N3CCN(C4COC4)CC3C#N)nn(-c3ccccc3)c21` (stereo partly shown) [Compound I-357], the IC50 in experiment [2] is not above 100 nM; in experiment [3] (setting [5]), not above 200 nM; in experiment [3] (setting [6]), not above 200 nM. The “% Adduct Formation” value in experiment [4] is “++ (MS Emax % adduct formation greater than 30.0 and less than or equal to 80.0)”.
